Measured values taken from patent publication US20200338040A1, “METHODS FOR TREATING ALZHEIMER'S DISEASE AND RELATED DISORDERS” (The General Hospital Corporation, priority 2015, published 2020).
Structures can show the parent of a compound that is named as a salt. Each block holds one compound with its values, some of them ahead of it.

Legend:
Aβ42 = molecular target: T1, Aβ42 (Homo sapiens, UniProt P05067); assay: Aβ42 fibril formation by transmission electron microscopy; type: biochemical
T1 construct: Aberrant Aβ peptide isoforms that are 40 or 42 amino acids in length (Aβ-40/42); host or cells: synthetic
T1 sequence (P05067 672-713 limits assumed): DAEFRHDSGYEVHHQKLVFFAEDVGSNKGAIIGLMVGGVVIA
Procedure: The anti-fibrillogenic properties of cromolyn was confirmed by performing TEM analysis. […] After incubation for 48 hours, 15 μl or the Aβ42 fibril solution were adsorbed on carbon-coated EM grids for 20 min. at room temperature. After 3 washes in sterile PBS and ddH2O, the grids were allowed to dry before negative staining with 2% (w/v) uranyl-acetate water, two times for 8 min. Each grid was then briefly washed in degassed ddH2O, air dried, and imaged by TEM at a magnification of 150,000×.

[1] = system: N- and C-terminal fragments of Gaussian luciferase conjugated to Aβ42; assay: Aβ split-luciferase complementation assay, oligomer formation in HEK293 cells; type: cell-based
Procedure: (§1) Aβ agglomeration and oligomer dissociation assays were performed in vitro using an Aβ splitluciferase complementation assay. […] The conditioned media from these cells was collected, 10 nM of coelenterazine was added and the luciferase activity was measured using a Wallac 1420 (PerkinElmer). […] The luciferase activity was measured.

[2] = system: pre-existing Aβ42 oligomers (Gluc halves fused with Aβ42); assay: Oligomer dissociation assay, split-luciferase, conditioned media; type: biochemical; conditions: added to conditioned media, 10 nM, 10 μM or 1 mM, 12 hours
Procedure: as §1

Aβx-40 = molecular target: T2, Aβx-40 (Homo sapiens, UniProt P05067); assay: Brain extract sandwich ELISA in APP/PS1 mice, Aβx-40; type: in vivo, mouse; conditions: for content of TBS-soluble Aβx-40 / total level of TBS soluble Aβx-40 after 0.5 M Gdn-HCl: seven days; for content of TBS-soluble Aβx-40: APP/PS1 mice; for total level of TBS soluble Aβx-40 after 0.5 M Gdn-HCl: guanidine 37° C. 30 min
T2 construct: commercially available kits BNT77/BA27 for Aβ40 or BNT77/BC05 for Aβx-42; from tissue; host or cells: brain extracts (TBS, Triton, SDS) or hippocampal interstitial fluid of APPswe/PS1dE9 mice
T2 sequence (P05067 672-711 limits assumed): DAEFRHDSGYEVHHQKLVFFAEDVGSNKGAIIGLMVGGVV

Aβx-42 = molecular target: T3, Aβx-42 (Homo sapiens, UniProt P05067); assay: Brain extract sandwich ELISA in APP/PS1 mice, Aβx-42; type: in vivo, mouse; conditions: for content of TBS-soluble Aβx-42 / total level of TBS soluble Aβx-42 after 0.5 M Gdn-HCl: seven days; for content of TBS-soluble Aβx-42: APP/PS1 mice; for total level of TBS soluble Aβx-42 after 0.5 M Gdn-HCl: guanidine 37° C. 30 min
T3 construct: commercially available kits BNT77/BA27 for Aβ40 or BNT77/BC05 for Aβx-42; from tissue; host or cells: brain extracts (TBS, Triton, SDS) or hippocampal interstitial fluid of APPswe/PS1dE9 mice
T3 sequence (P05067 672-713 limits assumed): as the sequence (P05067 672-713 limits assumed) above

Aβ oligomers = assay: 82E1/82E1 ELISA of Aβ oligomers in TBS soluble brain fraction of APP/PS1 mice; type: in vivo, mouse; conditions: one week i.p. treatment
monomeric Aβ = assay: Immunoblot of 4 kDa Aβ band (6E10, 82E1) in TBS soluble extracts of APP/PS1 mice; type: in vivo, mouse; conditions: one week i.p. treatment
amyloid deposits = assay: Immunohistochemical amyloid burden and density of amyloid deposits in APP/PS1 mice; type: in vivo, mouse; conditions: one week of treatment
ISF Aβx-40 = molecular target: T4, ISF Aβx-40 (Homo sapiens, UniProt P05067); assay: In vivo microdialysis of ISF in APP/PS1 mice, Aβx-40; parameters: species or system mouse; conditions: 3.15 mg/kg i.p. daily for one week
T4 construct: commercially available kits BNT77/BA27 for Aβ40 or BNT77/BC05 for Aβx-42; from tissue; host or cells: brain extracts (TBS, Triton, SDS) or hippocampal interstitial fluid of APPswe/PS1dE9 mice
T4 sequence (P05067 672-711 limits assumed): as the sequence (P05067 672-711 limits assumed) above

[3] = system: ISF Aβx-42 and Aβ oligomers; assay: In vivo microdialysis of ISF in APP/PS1 mice, Aβx-42 and Aβ oligomers; parameters: species or system mouse; conditions: 3.15 mg/kg i.p. daily for one week; compared with ISF Aβx-40
ISF Aβ = ISF Aβ half-life by reverse microdialysis with Compound E in APP/PS1 mice; type: in vivo, mouse; conditions: 3.15 mg/kg
Procedure: The contralateral hippocampus was used for this experiment. […] Aβ levels within the ISF were measured for an additional 5 hours. The single logarithmic plot was made from Aβ levels and extrapolated the half-life of ISF Aβ.

APP/PS1 transgenic mice = assay: Morris water maze in APP/PS1 transgenic mice; type: in vivo, mouse; conditions: versus mock treatment
Aβ peptides = assay: Binding to Aβ peptides
[4] = cited from earlier work
Aβ40 and Aβ42 = assay: Thioflavin T Aβ fibrillization assay; conditions: 5, 50, 5000 nM, one hour incubation at 37° C.
Procedure: In vitro amyloid fibrillization assay was performed using synthetic Aβ peptides (rPeptide, Bogart GA) as well as thioflavin-T (Sigma-Aldrich), respectively dissolved in DMSO and in methanol.
DMSO was used as control. The progression of fibrillization was followed every 10 min. for 60 min. at room temperature by measuring the fluorescence intensity at excitation and emission wavelengths of 450 nm and 480 nm, respectively, using an M3 microplate reader. The results were normalized for background using fluorescent reading at time 0 by the software provided by the M3 plate reader.

clinical = conditions: human, in vivo, po, 10 mg, average Cmax of ibuprofen in the CSF
Procedure: The evaluation of the plasma and CSF levels in 24 human subjects under an IND and a phase I study followed a 10 mg or 20 mg oral administration to healthy volunteers (age 55-79).

[5] = 3.15 mg/kg, versus PBS controls

formation of Aβ42 fibrils, TEM (Aβ42; 500 nM): inhibited | formation of Aβ42 fibrils, TEM (Aβ42; lower concentration (50 nM)): no effect was detected | luminescence signal, pre-existing oligomers [2]: failed to impact the luminescence signal | content of TBS-soluble Aβx-40 (Aβx-40; 2.1 mg/kg i.p. daily): 39.5% | total level of TBS soluble Aβx-40 after 0.5 M Gdn-HCl (Aβx-40; 2.1 mg/kg): 50.7% | content of TBS-soluble Aβx-40 (Aβx-40; 3.15 mg/kg i.p. daily): 37.1% | total level of TBS soluble Aβx-40 after 0.5 M Gdn-HCl (Aβx-40; 3.15 mg/kg): 44.6% | amount of Aβx-40 extracted in 2% SDS (Aβx-40; [5]): significantly decreased | amount of Aβx-40 extracted in 2% triton (Aβx-40; [5]): significantly decreased | content of TBS-soluble Aβx-42 (Aβx-42; 2.1 mg/kg i.p. daily): 40.9% | total level of TBS soluble Aβx-42 after 0.5 M Gdn-HCl (Aβx-42; 2.1 mg/kg): 63.3% | content of TBS-soluble Aβx-42 (Aβx-42; 3.15 mg/kg i.p. daily): 46.2% | total level of TBS soluble Aβx-42 after 0.5 M Gdn-HCl (Aβx-42; 3.15 mg/kg): 76.1% | amount of Aβx-42 extracted in 2% SDS (Aβx-42; [5]): significantly decreased | amount of Aβx-42 extracted in 2% triton (Aβx-42; [5]): significantly decreased | ISF Aβx-40 level (ISF Aβx-40): 283 pM | decrease of ISF Aβx-40 level (ISF Aβx-40): 30% | binding to Aβ peptides (Aβ peptides): binds to Aβ peptides
SMILES: O=C(O)c1cc(=O)c2c(OCC(O)COc3cccc4oc(C(=O)O)cc(=O)c34)cccc2o1 [cromolyn sodium, disodium salt of 5,5′-[(2-hydroxytrimethylene)dioxy]bis [4-oxo-4H-1-benzopyran-2-carboxylate]]
concentration at which the effect on luminescence could be detected [1]: above 10 μM | luminescence signal, oligomer formation ([1]; 10 nM, 10 μM or 1 mM, 12 hours): significantly decreased the luminescence signal in a dose-dependent manner | levels of oligomeric aggregates, 82E1/82E1 ELISA (Aβ oligomers): no changes | amounts of monomeric Aβ, 4 kDa band (monomeric Aβ): decreased | amyloid burden and density of amyloid deposits (amyloid deposits): remained unaffected | ISF Aβx-42 and Aβ oligomers [3]: performed similarly | shortening of half-life of ISF Aβ versus control (ISF Aβ): about 50% | time after Compound E at which ISF Aβ levels started to decrease (ISF Aβ): 2 h | memory capabilities in the Morris water maze tests (APP/PS1 transgenic mice): prevented lowering memory capabilities | water solubility [4]: water soluble | Aβ40 and Aβ42 fibrillization, thioflavin T (Aβ40 and Aβ42): inhibited Aβ fibril formation in vitro at a nanomolar concentration

Cmax (clinical): 3.94 ± 1.29 ng/mL
SMILES: CC(C)Cc1ccc(C(C)C(=O)O)cc1 (racemic) [ibuprofen, (RS)-2-(4-(2-methylpropyl)phenyl) propanoic acid]
solubility in organic solvents such as ethanol and acetone [4]: readily soluble | solubility in water [4]: < 1000 µg/mL
